Data from the NIST ThermoML archive (doi:10.1021/je050488p).
± gives the expanded uncertainty stated by the source.

Details: Crystal; visual observation

O=P1(CO)Oc2ccccc2-c2ccccc21 (stereo unspecified) [6-(hydroxymethyl)dibenzo[c,e][1,2]oxaphosphinine 6-oxide] gave a Normal melting temperature of 158.50 ± 1.5 °C.
